According to the pKa sets of Baltruschat and Czodrowski (2020):

Structure (SMILES)	pKa (acidic group)	pKa (basic group)
N#CC(C#N)=C(Br)C(C#N)C#N	2.6	
CC(C)Nc1ccccc1		5.67
Cc1cc(C(=O)O)cc(C)[n+]1O	-0.01	
C1CCN(CC[NH+]2CCCCC2)CC1		6.12
O=C(O)C(=O)C(c1ccccc1)c1ccccc1	2.78	
Nc1nc(N)c2[nH]c(N)nc2n1	10.8	6.23
C=C(C)C(=O)OCCN(C(C)C)C(C)C		8.77
CN(C)c1ccncc1		9.7
CN1C=C(C#N)CCC1		2.7
[NH3+]C(CC(=O)O)C(=O)NC(CC(=O)O)C(=O)O (configuration not stated)	2.7	
N#CCc1ccc(C#N)cc1[N+](=O)[O-]	11.4	
Cn1cnc2nc(N)nc([O-])c21		8.43
CN(C)/C=N/c1ccc(Br)cc1		8.1
Cn1cnc2cncnc21		2.42
CN(C)CCN(C)CCN		9.88
CCC1(c2ccccc2)C(=O)NC(=S)NC1=O	6.3	
[O-]/C(O)=C1\SCc2ccccc21	12.8	
O=C([O-])[C@@H]1O[C@H](Oc2ccc3ncccc3c2)[C@@H](O)[C@H](O)[C@H]1O		5
Nc1ccc2cc3ccccc3nc2c1		8.04
Cn1c(=O)[nH]c2ncn(C)c2c1=O	8.65	0.5
N[C@@H](Cc1nc(I)[n-]c1I)C(=O)[O-]		9.76
[NH3+]CCCCCCCCCCCC(=O)O	4.65	
CCN(CC)CCOC(=O)c1ccc2ccccc2c1		7.52
Cn1c(CCl)nc2c(O)ccc(O)c21	8.4	4.03

Structure (SMILES)	pKa (acidic group)	pKa (basic group)
CCCCCCCCCCCCCCCCCCN		10.6
Cc1nc(NCc2ccco2)c2cn[nH]c2n1		4.65
[NH3+]C(CC(=O)[O-])C(=O)NC(CC(=O)O)C(=O)O (configuration not stated)	3.4	
NCCCCCCCCC(=O)[O-]		11
Cc1cccc(N)n1		7.4
C/C(=N\O)C(=O)NO	7.74	
CCOCCNc1ccccc1		4.04
O=[N+]([O-])c1cccc2cnccc12		3.46
O=c1cccccc1		-0.82
N=C1Cc2ccccc2N1		8.15
C#C[C@]1(O)C[C@H](C)N[C@@H]2CCCC[C@H]21		9.63
c1ccc(-c2nc3ccccc3[nH]2)nc1	12.1	4.41
N/C(=[NH+]\O)c1ccccc1N		2.2
CC(=O)Nc1ccc(S(=O)(=O)Nc2nccc(C)n2)cc1	5.46	0.9
CC(=O)Nc1ccc(S(=O)(=O)Nc2ccccn2)cc1		2.03
CC[NH+](CC)CC(=O)O	1.98	
O=C([O-])c1cc2ccccc2cc1O	12.2	
CN(CCN)CC[NH+](C)C		9.23
O=C(O)CC1NC(=O)c2ccccc2O1 (configuration not stated)	4.9	
CC(C)CCOc1ccccc1/C=C\C(=O)O	4.38	
CC1(C)S[C@H]2[C@@H](NC(=O)Cc3ccc(O)cc3)C(=O)N2[C@@H]1C(=O)O	2.62	
CN1CCCN1C		6.67
Cc1cccnn1		3.46
CCNN(C)C		6.58

Structure (SMILES)	pKa (acidic group)	pKa (basic group)
CC(C)CC(N)C(=O)[O-] (configuration not stated)		9.76
O=c1ccccc(O)c1O	6.72	
N#Cc1cccc(-c2nnn[nH]2)c1	3.45	
NC(Cc1c[nH]c(=S)[nH]1)C(=O)[O-] (configuration not stated)	11.4	8.47
O=C1[C@H]2CCCC[C@H]2C(=O)N1O	6	
CC(O)CNCCO (configuration not stated)		8.81
Cc1cccc2cc3ccccc3nc12		4.5
CCC1(c2ccccc2)C(=O)NC(=S)N(C)C1=O (configuration not stated)	7.65	
CCOC(=O)CCCc1ccccn1		5.32
N[C@H](c1ccccc1)[C@H](O)c1ccccc1		10.5
N#CCc1cccnc1		3.78
CN1CC[C@]23c4c5ccc(O[C@@H]6O[C@H](C(=O)[O-])[C@@H](O)[C@H](O)[C@H]6O)c4O[C@H]2[C@@H](O)C=C[C@H]3[C@H]1C5		8.1
CCOc1ccnc([O-])n1		10.7
CSC1=NC(C)(C)C(O)=N1	9.48	
Nc1cc[nH+]c2c1ncn2CCOCP(=O)(O)O	1.11	0.05
c1ccc2nccnc2c1		0.64
NCCCC[NH3+]		9.36
O=[N+]([O-])c1ccc([Se](=O)O)cc1	4	
C[C@H]([NH3+])CCC(=O)O	4.13	
C[Si](C)(CNC1CCCCC1)O[Si](C)(C)CNC1CCCCC1		10.1
CCN(CC)Cc1cn2nc(-c3ccccc3)cc(C)c2n1		8.79
N#CC(C#N)=C(C#N)Nc1ccc(C(=O)O)cc1	4.2	
[NH3+]CCCCc1cccnc1		5.52
COC(=O)CS	7.57	

Structure (SMILES)	pKa (acidic group)	pKa (basic group)
Cc1ccc(N(CC2CO2)CC2CO2)cc1 (configuration not stated)		-0.48
C#CCCCCC(=O)O	4.58	
CC(C)Cc1ccc(O)c(CN(C)C)c1		8.51
OC[C@@H]1O[C@H](n2cnc3c([S-])ncnc32)[C@@H](O)[C@H]1O		7.63
C[C@]12C[C@H](C(=O)O)OC(=O)[C@H]1CC[C@@]1(C)[C@@H]2[C@H]2CCC1(O)C(=O)O2	3.5	
O=C(/C(=N\O)c1ccccc1)c1ccccc1	10	
O=C1CSC(=S)N1	6.48	
CNCCN(C)CCNC		10.4
OC(CN1CCOCC1)CN1CCOCC1		6.98
CN(C)CCc1c[nH]c2ccc([O-])cc12		11.2
CCCCCC(=O)NO	9.58	
Nc1nsc2ccccc12		2.45
COc1cccnc1C=O		3.89
On1nnc2c(Cl)cccc21	3.9	
CCN(C)C		10.1
CN(c1ccccc1)C1CCCC1		6.71
NCC(O)c1ccccc1 (configuration not stated)		8.94
CC(C)CCC([NH3+])C(=O)O (configuration not stated)	3.06	
OCCN1CC[NH2+]CC1		5.47
Cc1nc(C)nc(N)n1		3.6
CC(C=C(c1cccs1)c1cccs1)N1CCCCCC1 (configuration not stated)		7.96
N[C@@H]1CCCC[C@@H]1N		9.84
NS(=O)(=O)c1ccc(P(=O)(O)O)cc1	1.42	
S=C(S)NC1CCCCC1	2.95	

Structure (SMILES)	pKa (acidic group)	pKa (basic group)
COc1ccncc1		6.65
Nc1cccc2c1nnn2[C@@H]1C[C@@H](O)[C@H](CO)O1		1.9
COc1nc2ncncc2[nH]1	7.73	3.14
COC(=N)N		9.72
OC(CBr)(Oc1ccccc1)c1ccccc1 (configuration not stated)	11.2	
Cc1cc([N+](=O)[O-])ccc1N		1.97
[O-]c1ccccn1		11.7
CC(C)N		10.6
O=[N+]([O-])c1cccc(S(=O)(=O)Nc2ccccc2)c1	7.5	
CN(C)CCOC(C)(c1ccccc1)c1ccccc1		8.75
CN(C)c1cccc(/C(=N\O)C(F)(F)F)c1	9.3	
CC(C)[NH2+]CCN		7.7
Oc1nsc2ccccc12	7.01	
c1ccc2c(c1)NCC[NH2+]2		2.11
N[C@@H]1C[C@@H]2CCCC[C@H]2C[C@@H]1N		9.93
Cc1cc([S-])nc([S-])n1		12
CCOC(=O)c1cnc2ccc([N+](=O)[O-])cc2c1[O-]		8
O=Cc1ccc(-c2ncc(-c3ccccc3)o2)cc1		0.02
C1CCN(C2CCNCC2)CC1		10.7
CCC(=O)SCCN(C)C		8.28
COc1cc2c(cc1O)CCN1Cc3c(ccc(OC)c3OC)C[C@@H]21		9.55
Nc1ccc(S(=O)(=O)Nc2ccccn2)cc1	8.51	2.58
